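GI50 marks 50% less growth. The concentration for full growth arrest is given as TGI.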
Experiments:
Assay in all cases: NCI-60 cell line screen, 384-well format
LOX IMVI melanoma = test system: LOX IMVI melanoma
NCI-H460 NSCLC = test system: NCI-H460 NSCLC
K-562 leukemia = test system: K-562 leukemia
KM12 colon = test system: KM12 colon
SNB-75 CNS = test system: SNB-75 CNS
IGROV1 ovarian = test system: IGROV1 ovarian
MALME-3M melanoma = test system: MALME-3M melanoma
BT-549 breast = test system: BT-549 breast
CAKI-1 renal = test system: CAKI-1 renal
SK-MEL-5 melanoma = test system: SK-MEL-5 melanoma
SF-539 CNS = test system: SF-539 CNS
NCI-H226 lung = test system: NCI-H226 lung
HCT-116 colon = test system: HCT-116 colon

Compound | GI50 (LOX IMVI melanoma) [µM] | TGI (LOX IMVI melanoma) [µM] | GI50 (NCI-H460 NSCLC) [µM] | TGI (NCI-H460 NSCLC) [µM] | GI50 (K-562 leukemia) [µM] | TGI (K-562 leukemia) [µM] | GI50 (KM12 colon) [µM] | TGI (KM12 colon) [µM] | GI50 (SNB-75 CNS) [µM] | TGI (SNB-75 CNS) [µM] | GI50 (IGROV1 ovarian) [µM] | TGI (IGROV1 ovarian) [µM] | GI50 (MALME-3M melanoma) [µM] | TGI (MALME-3M melanoma) [µM] | GI50 (BT-549 breast) [µM] | TGI (BT-549 breast) [µM] | GI50 (CAKI-1 renal) [µM] | TGI (CAKI-1 renal) [µM] | GI50 (SK-MEL-5 melanoma) [µM] | TGI (SK-MEL-5 melanoma) [µM] | other results
O=C(Nc1cnn2ccc(N3CCC[C@@H]3c3cc(F)ccc3F)nc12)N1CC[C@H](O)C1 | > 100 | > 100 | > 100 | > 100 | > 100 | > 100 | 0.0181 | > 100 | > 100 | > 100 | > 100 | > 100 | > 100 | > 100 | > 100 | > 100 | > 100 | > 100 | > 100 | > 100 | GI50 (SF-539 CNS): > 100 µM; TGI (SF-539 CNS): > 100 µM; GI50 (NCI-H226 lung): > 100 µM; TGI (NCI-H226 lung): > 100 µM; GI50 (HCT-116 colon): > 100 µM; TGI (HCT-116 colon): > 100 µM
COc1ncc(-c2nc3c(n2C(C)C)[C@H](c2ccc(Cl)cc2)N(c2cc(Cl)cn(C)c2=O)C3=O)c(OC)n1 | 18.9 | > 100 | 14.2 | 45.5 | 33.2 | > 100 | 49.8 | > 100 | > 52.2 | > 100 | 24.9 | > 100 | 12.7 | 42.5 | 36.2 | > 100 | 6.27 | > 64.1 | 12.7 | 29.6 | GI50 (SF-539 CNS): > 73 µM; TGI (SF-539 CNS): > 100 µM; GI50 (NCI-H226 lung): 13 µM; TGI (NCI-H226 lung): 30.2 µM; GI50 (HCT-116 colon): 18.2 µM; TGI (HCT-116 colon): > 100 µM

From PubChem BioAssay (NCI)
